Assay results as given in patent US8937072B2, “Substituted cyanoaniline compounds, preparation and use thereof” (Sinochem Corporation, priority 2011, dated 2015).
Where two headings read alike, the source gives them in different places.

Experiments:
[1] = system: cucumber downy mildew; assay: Protectant activity in vivo (whole plant) against cucumber downy mildew
Experimental: (§1) The method is as followed: The whole plant is used in this test. The compound is dissolved in a proper solvent to get mother solution. The proper solvent is selected from acetone, methanol, DMF and so on according to their dissolving capability to the sample. The volume rate of solvent and testing solution (v/v) is equal to or less than 5%. The mother solution is diluted with water containing 0.1% tween-80 to get the testing solution whose concentration is designed. The testing solution is sprayed to the host plant by a special plant sprayer. The plant is inoculated with fungus after 24 hours. According to the infecting characteristic of fungus, the plant is stored in a humidity chamber and then transferred into greenhouse after infection is finished. And the other plants are placed in greenhouse directly. The activity of compound is obtained by eyeballing after 7 days in common.

[2] = system: rice blast; assay: microbe, parasite or virus in culture; type: cell-based; conditions: for the inhibition rate against rice blast (%) 0.03 mg/L: Table 21, 0.03 mg/L; for the inhibition rate against rice blast (%) 0.1 mg/L: Table 21, 0.1 mg/L; for the inhibition rate against rice blast (%) 0.3 mg/L: Table 21, 0.3 mg/L; for inhibition rate against rice blast: in vitro
[3] = system: corn rust; assay: Protectant activity in vivo (whole plant) against corn rust
Experimental: as §1

[4] = system: cucumber gray mold; assay: Activity in vitro (96-well, High Through Put): inhibition rate against cucumber gray mold; type: cell-based
Experimental: The method is as followed: High Through Put is used in the test. The compound is dissolved in a proper solvent to become a testing solution whose concentration is designed. The solvent is selected from acetone, methanol, DMF and so on according to their dissolving capability to the sample. In a no animalcule condition, the testing solution and pathogens suspension are added into the cells of 96 cells culture board, which then should be placed in the constant temperature box. 24 hours later, pathogen germination or growth can be investigated by eyeballing, and the activity in vitro of the compound is evaluated based on germination or growth of control treatment.

N#Cc1c(Cl)c(Cl)c(Nc2ccc(Cl)cc2[N+](=O)[O-])c(C#N)c1Cl [Compound B-39]
protectant activity against cucumber downy mildew in vivo ([1]; dose 400 mg/L): 100% | the inhibition rate against rice blast (%) 0.03 mg/L [2]: 0% | the inhibition rate against rice blast (%) 0.1 mg/L [2]: 80% | the inhibition rate against rice blast (%) 0.3 mg/L [2]: 100%

N#Cc1c(Cl)c(Cl)c(C#N)c(Nc2c(Cl)cncc2Cl)c1Cl [Compound C-124]
protectant activity against cucumber downy mildew in vivo ([1]; dose 50 mg/L): 100% | protectant activity against cucumber downy mildew in vivo ([1]; dose 100 mg/L): 100% | protectant activity against cucumber downy mildew in vivo ([1]; dose 400 mg/L): 100% | the inhibition rate against rice blast (%) 0.03 mg/L [2]: 100% | the inhibition rate against rice blast (%) 0.1 mg/L [2]: 100% | the inhibition rate against rice blast (%) 0.3 mg/L [2]: 100%

N#Cc1c(Cl)c(Cl)c(Nc2c(Cl)cc([N+](=O)[O-])cc2Br)c(Cl)c1C#N [Compound A-46]
the inhibition rate against rice blast (%) 0.03 mg/L [2]: 100% | the inhibition rate against rice blast (%) 0.1 mg/L [2]: 100% | the inhibition rate against rice blast (%) 0.3 mg/L [2]: 100% | the protectant activity (%) against corn rust ([3]; 6.25 mg/L): 75% | the protectant activity (%) against corn rust ([3]; 25 mg/L): 85% | the protectant activity (%) against corn rust ([3]; 100 mg/L): 95% | the protectant activity (%) against corn rust ([3]; 400 mg/L): 100% | protectant activity against corn rust in vivo ([3]; dose 400 mg/L): 100%

N#Cc1c(Cl)c(Cl)c(C#N)c(Nc2cc(Cl)cnc2Cl)c1Cl [Compound C-118]
protectant activity against cucumber downy mildew in vivo ([1]; dose 400 mg/L): 100% | the inhibition rate against rice blast (%) 0.03 mg/L [2]: 100% | the inhibition rate against rice blast (%) 0.1 mg/L [2]: 100% | the inhibition rate against rice blast (%) 0.3 mg/L [2]: 100%

COc1ccc(Nc2c(F)c(C#N)c(F)c(F)c2C#N)cc1 [Compound C-68]
inhibition rate against rice blast ([2]; dose 8.3 mg/L): 80%

N#Cc1c(Cl)c(Cl)c(Nc2nc(Cl)c(Cl)cc2Cl)c(C#N)c1Cl [Compound B-128]
protectant activity against cucumber downy mildew in vivo ([1]; dose 50 mg/L): 98% | protectant activity against cucumber downy mildew in vivo ([1]; dose 100 mg/L): 100% | protectant activity against cucumber downy mildew in vivo ([1]; dose 400 mg/L): 100% | the inhibition rate against rice blast (%) 0.03 mg/L [2]: 100% | the inhibition rate against rice blast (%) 0.1 mg/L [2]: 100% | the inhibition rate against rice blast (%) 0.3 mg/L [2]: 100%

N#Cc1c(Cl)c(Cl)c(Nc2c(Br)cc([N+](=O)[O-])cc2Br)c(C#N)c1Cl [Compound B-57]
the protectant activity (%) against cucumber downy mildew ([1]; 12.5 mg/L): 30% | the protectant activity (%) against cucumber downy mildew ([1]; 25 mg/L): 100% | the protectant activity (%) against cucumber downy mildew ([1]; 50 mg/L): 100% | the protectant activity (%) against cucumber downy mildew ([1]; 100 mg/L): 100% | protectant activity against cucumber downy mildew in vivo ([1]; dose 25 mg/L): 100% | protectant activity against cucumber downy mildew in vivo ([1]; dose 50 mg/L): 100% | protectant activity against cucumber downy mildew in vivo ([1]; dose 100 mg/L): 100% | protectant activity against cucumber downy mildew in vivo ([1]; dose 400 mg/L): 100% | the protectant activity (%) against corn rust ([3]; 6.25 mg/L): 60% | the protectant activity (%) against corn rust ([3]; 25 mg/L): 80% | the protectant activity (%) against corn rust ([3]; 100 mg/L): 85% | the protectant activity (%) against corn rust ([3]; 400 mg/L): 100% | protectant activity against corn rust in vivo ([3]; dose 400 mg/L): 100% | the inhibition rate against cucumber gray mold (%) ([4]; 0.9 mg/L): 80% | the inhibition rate against cucumber gray mold (%) ([4]; 2.8 mg/L): 100% | the inhibition rate against cucumber gray mold (%) ([4]; 8.3 mg/L): 100%

CN(C)c1ccc(Nc2c(F)c(F)c(C#N)c(F)c2C#N)cc1 [KC24]
pest or weed control at 12.5 µg/mL ([1]; Cucumis sativus, 168 h, 12.5 mg/L): 0% | pest or weed control at 25 µg/mL ([1]; Cucumis sativus, 168 h, 25 mg/L, read-out: the protectant activity (%) against cucumber downy mildew): 0% | pest or weed control at 50 µg/mL ([1]; Cucumis sativus, 168 h, 50 mg/L, read-out: the protectant activity (%) against cucumber downy mildew): 0% | pest or weed control at 100 µg/mL ([1]; Cucumis sativus, 168 h, 100 mg/L, read-out: the protectant activity (%) against cucumber downy mildew): 0% | pest or weed control at 400 µg/mL ([1]; Cucumis sativus, 168 h, dose 400 mg/L): 0% | pest or weed control at 6.25 µg/mL ([3]; Zea mays, 168 h, 6.25 mg/L): 0% | pest or weed control at 25 µg/mL ([3]; Zea mays, 168 h, 25 mg/L): 0% | pest or weed control at 100 µg/mL ([3]; Zea mays, 168 h, 100 mg/L): 0% | pest or weed control at 400 µg/mL ([3]; Zea mays, 168 h, 400 mg/L, read-out: the protectant activity (%) against corn rust): 0% | pest or weed control at 400 µg/mL ([3]; Zea mays, 168 h, dose 400 mg/L, read-out: protectant activity against corn rust in vivo): 0% | inhibition at 0.3 µg/mL ([4]; 0.3 mg/L): 0% | inhibition at 0.9 µg/mL ([4]; 0.9 mg/L, read-out: the inhibition rate against cucumber gray mold (%)): 0% | inhibition at 2.8 µg/mL ([4]; 2.8 mg/L, read-out: the inhibition rate against cucumber gray mold (%)): 0% | inhibition at 8.3 µg/mL ([4]; 8.3 mg/L, read-out: the inhibition rate against cucumber gray mold (%)): 0% | inhibition at 25 µg/mL ([4]; in vitro, dose 25 mg/L): 0%

COc1ccc(Nc2c(Cl)c(C#N)c(Cl)c(Cl)c2C#N)cc1 [Compound C-14]
inhibition rate against rice blast ([2]; dose 8.3 mg/L): 80%

O=[N+]([O-])c1cc(C(F)(F)F)c(Cl)c([N+](=O)[O-])c1Nc1ncc(C(F)(F)F)cc1Cl [fluazinam]
inhibition at 0.03 µg/mL ([2]; Pyricularia oryzae, read-out: the inhibition rate against rice blast (%) 0.03 mg/L): 50% | inhibition at 0.1 µg/mL ([2]; Pyricularia oryzae, read-out: the inhibition rate against rice blast (%) 0.1 mg/L): 80% | inhibition at 0.3 µg/mL ([2]; Pyricularia oryzae, read-out: the inhibition rate against rice blast (%) 0.3 mg/L): 100%

N#Cc1c(F)c(F)c(Nc2ccc(C(F)(F)F)cc2Cl)c(C#N)c1F [Compound B-92]
protectant activity against cucumber downy mildew in vivo ([1]; dose 50 mg/L): 98% | protectant activity against cucumber downy mildew in vivo ([1]; dose 100 mg/L): 100% | protectant activity against cucumber downy mildew in vivo ([1]; dose 400 mg/L): 100% | inhibition rate against rice blast ([2]; dose 0.3 mg/L): 80% | protectant activity against corn rust in vivo ([3]; dose 100 mg/L): 100% | protectant activity against corn rust in vivo ([3]; dose 400 mg/L): 100%

N#Cc1c(Cl)c(Cl)c(C#N)c(Nc2ncccn2)c1Cl [Compound C-126]
protectant activity against cucumber downy mildew in vivo ([1]; dose 400 mg/L): 100% | inhibition rate against rice blast ([2]; dose 8.3 mg/L): 80%

N#Cc1c(Cl)c(Cl)c(Nc2c(Cl)c(Cl)c(C#N)c(Cl)c2C#N)c(C#N)c1Cl [Compound B-69]
protectant activity against cucumber downy mildew in vivo ([1]; dose 400 mg/L): 100% | inhibition rate against rice blast ([2]; dose 8.3 mg/L): 80% | protectant activity against corn rust in vivo ([3]; dose 400 mg/L): 100%

N#Cc1c(Cl)c(Cl)c(C#N)c(Nc2c(Cl)cc([N+](=O)[O-])cc2Br)c1Cl [Compound C-49]
the inhibition rate against rice blast (%) 0.03 mg/L [2]: 100% | the inhibition rate against rice blast (%) 0.1 mg/L [2]: 100% | the inhibition rate against rice blast (%) 0.3 mg/L [2]: 100% | the protectant activity (%) against corn rust ([3]; 6.25 mg/L): 50% | the protectant activity (%) against corn rust ([3]; 25 mg/L): 80% | the protectant activity (%) against corn rust ([3]; 100 mg/L): 90% | the protectant activity (%) against corn rust ([3]; 400 mg/L): 100% | protectant activity against corn rust in vivo ([3]; dose 400 mg/L): 100%

N#Cc1c(Cl)c(Cl)c(Nc2cc(Cl)cnc2Cl)c(C#N)c1Cl [Compound B-133]
the protectant activity (%) against cucumber downy mildew ([1]; 12.5 mg/L): 95% | the protectant activity (%) against cucumber downy mildew ([1]; 25 mg/L): 100% | the protectant activity (%) against cucumber downy mildew ([1]; 50 mg/L): 100% | the protectant activity (%) against cucumber downy mildew ([1]; 100 mg/L): 100% | protectant activity against cucumber downy mildew in vivo ([1]; dose 6.25 mg/L): 80% | protectant activity against cucumber downy mildew in vivo ([1]; dose 25 mg/L): 100% | protectant activity against cucumber downy mildew in vivo ([1]; dose 50 mg/L): 100% | protectant activity against cucumber downy mildew in vivo ([1]; dose 100 mg/L): 100% | the inhibition rate against rice blast (%) 0.03 mg/L [2]: 100% | the inhibition rate against rice blast (%) 0.1 mg/L [2]: 100% | the inhibition rate against rice blast (%) 0.3 mg/L [2]: 100%

N#Cc1c(Cl)c(Cl)c(Nc2cc(C(F)(F)F)ccc2F)c(C#N)c1Cl [Compound B-30]
the inhibition rate against rice blast (%) 0.03 mg/L [2]: 0% | the inhibition rate against rice blast (%) 0.1 mg/L [2]: 50% | the inhibition rate against rice blast (%) 0.3 mg/L [2]: 100%

N#Cc1c(Cl)c(Cl)c(Nc2ccc([N+](=O)[O-])cc2Cl)c(Cl)c1C#N [Compound A-15]
protectant activity against cucumber downy mildew in vivo ([1]; dose 50 mg/L): 100% | protectant activity against cucumber downy mildew in vivo ([1]; dose 100 mg/L): 100% | protectant activity against cucumber downy mildew in vivo ([1]; dose 400 mg/L): 100% | protectant activity against corn rust in vivo ([3]; dose 400 mg/L): 100% | the inhibition rate against cucumber gray mold (%) ([4]; 0.3 mg/L): 100% | the inhibition rate against cucumber gray mold (%) ([4]; 0.9 mg/L): 100% | the inhibition rate against cucumber gray mold (%) ([4]; 2.8 mg/L): 100% | the inhibition rate against cucumber gray mold (%) ([4]; 8.3 mg/L): 100%

COC(=O)c1cc(Cl)c(Nc2c(Cl)c(Cl)c(C#N)c(Cl)c2C#N)c(Cl)c1 [Compound B-62]
the inhibition rate against rice blast (%) 0.03 mg/L [2]: 0% | the inhibition rate against rice blast (%) 0.1 mg/L [2]: 80% | the inhibition rate against rice blast (%) 0.3 mg/L [2]: 100% | the protectant activity (%) against corn rust ([3]; 6.25 mg/L): 0% | the protectant activity (%) against corn rust ([3]; 25 mg/L): 30% | the protectant activity (%) against corn rust ([3]; 100 mg/L): 60% | the protectant activity (%) against corn rust ([3]; 400 mg/L): 100% | protectant activity against corn rust in vivo ([3]; dose 400 mg/L): 100%

N#Cc1c(Cl)c(Cl)c(Nc2ccc(C(F)(F)F)cc2Cl)c(C#N)c1Cl [Compound B-28]
the protectant activity (%) against cucumber downy mildew ([1]; 12.5 mg/L): 20% | the protectant activity (%) against cucumber downy mildew ([1]; 25 mg/L): 80% | the protectant activity (%) against cucumber downy mildew ([1]; 50 mg/L): 98% | the protectant activity (%) against cucumber downy mildew ([1]; 100 mg/L): 100% | protectant activity against cucumber downy mildew in vivo ([1]; dose 50 mg/L): 98% | protectant activity against cucumber downy mildew in vivo ([1]; dose 100 mg/L): 100% | protectant activity against cucumber downy mildew in vivo ([1]; dose 400 mg/L): 100% | the inhibition rate against rice blast (%) 0.03 mg/L [2]: 80% | the inhibition rate against rice blast (%) 0.1 mg/L [2]: 100% | the inhibition rate against rice blast (%) 0.3 mg/L [2]: 100%
